Series [1] has as its system Hepatotoxicity. Briefly: Literature-mined compound from Fourches et al multi-species drug-induced liver injury (DILI) dataset, effect in humans. The settings on record: human.
Series [2] relates to Hepatotoxicity. Description: Literature-mined compound from Fourches et al multi-species drug-induced liver injury (DILI) dataset, effect in rodents. The settings on record: rodentia.
For series [3], the system named is Hepatotoxicity. Briefly: Literature-mined compound from Fourches et al multi-species drug-induced liver injury (DILI) dataset, effect in non-rodents.

Drawing on ChEMBL document CHEMBL1697731, “Cheminformatics analysis of assertions mined from literature that describe drug-induced liver injury in different species” (Chem Res Toxicol, 2010), this text covers Hepatotoxicity for 24 compounds.

Turning to `CC1(C)S[C@@H]2[C@H](NC(=O)[C@H](N)c3ccccc3)C(=O)N2[C@H]1C(=O)O` [AMPICILLIN], the Hepatotoxicity result in series [1] is reported as “drug-induced liver injury reported”; in series [2], “drug-induced liver injury reported”; in series [3], “no drug-induced liver injury reported”.
`N#Cc1cc(NC(=O)C(=O)O)c(Cl)c(NC(=O)C(=O)O)c1.NC(CO)(CO)CO`: the Hepatotoxicity result in series [1] was “no drug-induced liver injury reported”; in series [2], “drug-induced liver injury reported”; in series [3], “no drug-induced liver injury reported”.
As to `COc1ccc2[nH]c([S+]([O-])Cc3ncc(C)c(OC)c3C)nc2c1` (configuration not stated) [OMEPRAZOLE], the figures for the Hepatotoxicity entry in series [1], in series [2] and in series [3] were “drug-induced liver injury reported”, “drug-induced liver injury reported” and “no drug-induced liver injury reported”, respectively.
As for `Cc1onc(-c2ccccc2)c1C(=O)N[C@@H]1C(=O)N2[C@@H]1SC(C)(C)[C@@H]2C(=O)[O-].[Na+]`, the Hepatotoxicity result in series [1] is on record as “drug-induced liver injury reported”; in series [2], “no drug-induced liver injury reported”; in series [3] it was “no drug-induced liver injury reported”.
Turning to `CC(=O)O` [ACETIC ACID], the Hepatotoxicity entry in series [1] (Liver), in series [2] (Liver) and in series [3] (Liver) was “drug-induced liver injury reported” each time.
For `CC(C)(C)NCC(O)COc1cccc2c1CC(O)C(O)C2` (configuration not stated) [NADOLOL], the Hepatotoxicity result in series [1] is on record as “drug-induced liver injury reported”; in series [2], “no drug-induced liver injury reported”; in series [3], “no drug-induced liver injury reported”.
Take `CCCC1O[C@@H]2C[C@H]3[C@@H]4CCC5=CC(=O)C=C[C@]5(C)[C@H]4[C@@H](O)C[C@]3(C)[C@]2(C(=O)CO)O1` (some centres not stated) [BUDESONIDE]: the values for the Hepatotoxicity entry in series [1], in series [2] and in series [3] were “drug-induced liver injury reported”, “drug-induced liver injury reported” and “no drug-induced liver injury reported”, respectively.
Turning to `O=C(O)CC(O)(CC(=O)O)C(=O)O` [CITRIC ACID], the Hepatotoxicity entry is recorded as “no drug-induced liver injury reported” in series [1], “drug-induced liver injury reported” in series [2] and “no drug-induced liver injury reported” in series [3].
Turning to `COC(=O)[C@H]1[C@@H](OC(=O)c2ccccc2)C[C@@H]2CC[C@H]1N2C` [COCAINE], the results for the Hepatotoxicity entry in series [1], in series [2] and in series [3] were “drug-induced liver injury reported”, “drug-induced liver injury reported” and “no drug-induced liver injury reported”, respectively.
As to `COc1cnc(NS(=O)(=O)c2ccc(N)cc2)nc1`, the Hepatotoxicity entry is listed as “drug-induced liver injury reported” in series [1], “no drug-induced liver injury reported” in series [2] and “no drug-induced liver injury reported” in series [3].
Consider `CCC1=C(C[C@H]2NCCc3cc(OC)c(OC)cc32)C[C@H]2c3cc(OC)c(OC)cc3CCN2C1` [DEHYDROEMETINE], for which the Hepatotoxicity entry was “no drug-induced liver injury reported” in series [1], “drug-induced liver injury reported” in series [2] and “no drug-induced liver injury reported” in series [3].
For `COC(=O)c1ccccc1O` [METHYL SALICYLATE], the Hepatotoxicity entry was “no drug-induced liver injury reported” in series [1], “no drug-induced liver injury reported” in series [2] and “drug-induced liver injury reported” in series [3].
As for `CC1(C)[C@@H](OC(=O)CCC(=O)O)CC[C@]2(C)[C@H]3C(=O)C=C4[C@@H]5C[C@@](C)(C(=O)O)CC[C@]5(C)CC[C@@]4(C)[C@]3(C)CC[C@@H]12` [CARBENOXOLONE], the Hepatotoxicity result is “no drug-induced liver injury reported” in series [1], “drug-induced liver injury reported” in series [2] and “no drug-induced liver injury reported” in series [3].
As to `O=C(N[C@H](CO)[C@H](O)c1ccc([N+](=O)[O-])cc1)C(Cl)Cl` [CHLORAMPHENICOL], the Hepatotoxicity result in series [1] is reported as “drug-induced liver injury reported”; in series [2], “drug-induced liver injury reported”; in series [3], “no drug-induced liver injury reported”.
As for GOLD SODIUM THIOMALATE, the Hepatotoxicity result in series [1] is “drug-induced liver injury reported”; in series [2], “drug-induced liver injury reported”; in series [3], “no drug-induced liver injury reported”.
Regarding `C[C@]12COC(=O)C[C@@H]1CC[C@@H]1[C@@H]2CC[C@@]2(C)[C@H]1CC[C@]2(C)O` [OXANDROLONE], the Hepatotoxicity entry in series [1] is recorded as “no drug-induced liver injury reported”; in series [2], “drug-induced liver injury reported”; in series [3], “no drug-induced liver injury reported”.
`O[C@H]1[C@H](O)[C@@H](O)[C@H](O)[C@@H](O)[C@H]1O` [INOSITOL]: the Hepatotoxicity entry in series [1] is “drug-induced liver injury reported”; in series [2] it was “no drug-induced liver injury reported”; in series [3], “no drug-induced liver injury reported”.
`CN(C)CCCC1(c2ccc(F)cc2)OCc2cc(C#N)ccc21` (configuration not stated) [CITALOPRAM]: the figures for the Hepatotoxicity result in series [1], in series [2] and in series [3] were “no drug-induced liver injury reported”, “drug-induced liver injury reported” and “no drug-induced liver injury reported”, respectively.
Take `O=C(OCC(COC(=O)c1cccnc1)(COC(=O)c1cccnc1)COC(=O)c1cccnc1)c1cccnc1` [NICERITROL]: the values for the Hepatotoxicity entry in series [1], in series [2] and in series [3] were “no drug-induced liver injury reported”, “no drug-induced liver injury reported” and “drug-induced liver injury reported”, respectively.
On to `CCc1nc(N)nc(N)c1-c1ccc(Cl)cc1` [PYRIMETHAMINE], for which the Hepatotoxicity result was “drug-induced liver injury reported” in series [1], “drug-induced liver injury reported” in series [2] and “no drug-induced liver injury reported” in series [3].
Take `COC1=CC(=O)C[C@@H](C)[C@]12Oc1c(Cl)c(OC)cc(OC)c1C2=O` [GRISEOFULVIN]: the Hepatotoxicity result in series [1] is on record as “drug-induced liver injury reported”; in series [2], “drug-induced liver injury reported”; in series [3], “no drug-induced liver injury reported”.
Regarding VITAMIN K, the Hepatotoxicity result in series [1] is on record as “drug-induced liver injury reported”; in series [2], “drug-induced liver injury reported”; in series [3], “no drug-induced liver injury reported”.
With `CC(C)O` [ISOPROPYL ALCOHOL], the Hepatotoxicity entry in series [1] is listed as “no drug-induced liver injury reported”; in series [2], “drug-induced liver injury reported”; in series [3], “no drug-induced liver injury reported”.
Take `Cl.Nc1c2c(nc3ccccc13)CCCC2` [TACRINE HYDROCHLORIDE]: the Hepatotoxicity entry in series [1] (Liver) is recorded as “no drug-induced liver injury reported”; in series [2] (Liver), “drug-induced liver injury reported”; in series [3] (Liver), “no drug-induced liver injury reported”.
